Measurements as given in PMC10531311, “Anti-Inflammatory Activities of 8-Benzylaminoxanthines Showing High Adenosine A2A and Dual A1/A2A Receptor Affinity” (International Journal of Molecular Sciences, 2023).
Marks after values point to notes of the source that are not given here.

Columns and labels:
[1] = Precipitation in culture medium seen under inverted microscope; assay type: physicochemical; conditions: 25 μM, 50 μM, 100 μM
SH-SY5Y cells = experiment: Neurotoxicity, MTS cell viability; assay type: cell-based, human; conditions: 0.098 μM to 100 μM, 24 h
Procedure: (§1) Drug safety is a critical step in the process of drug development. […] In our studies, neurotoxicity and hepatotoxicity were evaluated in SH-SY5Y and HepG2 cells, respectively. The compounds were tested at 11 concentrations from 0.098 μM to 100 μM (see Figure 5). Cell viability was assessed after incubation for 24 h with the SH-SY5Y line and for 48 h with the HepG2 line.
(§2) To evaluate neurotoxicity and hepatotoxicity, the human neuroblastoma cell line SH-SY5Y (ATCC® no. CRL-2266™) and hepatoma cell line HepG2 (ATCC® no. HB-8065™) were used, respectively. The cells (SH-SY5Y: 5 × 10^3 cells/100μL/well and HepG2: 7 × 10^3 cells/100 μL/well) were seeded in transparent 96-well plates (Nunc) in DMEM supplemented with 10% FBS and cultured overnight. The next day, the medium was changed to medium containing dimethylsulfoxide (DMSO < 0.1%, vehicle control) or an increasing concentration of compounds MZ-1483 (19), MZ-1490 (22) and MZ-1495 (24) ([…]–100 × 10^−6 M). To perform dose-response analysis, two-fold serial dilutions (11 points) were prepared. Treatment with compounds was performed for 48 h. After the incubation time, the cell viability was examined using an MTS-based [3-(4,5-dimethylthiazol-2-yl)-5-(3-carboxymethoxyphenyl)-2-(4-sulfophenyl)-2 H tetrazolium] CellTiter96® AQueous One Solution Cell Proliferation Assay (Promega, Madison, WI, USA) following the manufacturer’s protocol. Briefly, 20 μL of MTS solution was pipetted into each well containing 100 μL of culture or culture medium (negative control) and incubated at 37 °C for 1 h. After incubation time, formazan product turnover absorbance was measured at 490 nm using the microplate reader (Tecan Spark®, Tecan Group Ltd., Maennedorf, Switzerland). A reference wavelength of 630 nm was used.

HepG2 cells = experiment: Hepatotoxicity, MTS cell viability; assay type: cell-based, human; conditions: 0.098 μM to 100 μM, 48 h
Procedure: as §1, §2

[2] = test system: carrageenan-induced paw edema in rats; experiment: Carrageenan-induced paw edema test; assay type: in vivo, Wistar rats; conditions: 20 mg/kg ip; for Change in Edema Volume 1 h / inhibition of edema, first hour: 1 h; for Change in Edema Volume 2 h / inhibition of edema, second hour: 2 h; for Change in Edema Volume 3 h / inhibition of edema, third hour: 3 h
Procedure: The carrageenan test is used to evaluate the anti-inflammatory effect, as the injection of this compound into the hind paw of an animal induces long-lasting edema. The aim of the present study was to evaluate the anti-inflammatory (antiedematous) activity of the compounds tested: 19, 22 and 24. The compounds were administered at a dose of 20 mg/kg of body weight (bw).
The in vivo experiments were carried out on male albino Swiss mice weighing 18–26 g and male Wistar rats weighing 150–180 g. The animals were housed in constant temperature facilities exposed to a 12:12 light-dark cycle and maintained on a standard pellet diet and tap water given ad libitum. The control and experimental groups consisted of 6–8 animals each. The investigated compounds were intraperitoneally (ip) administered in the form of a suspension in 0.5% methylcellulose. Control animals received the equivalent volume of solvent. All procedures were conducted according to the guidelines of ICLAS (International Council on Laboratory Animals Science) and were approved by the Local Ethics Committee of the Jagiellonian University in Kraków.
Rats were divided into four groups, one of them being the control. In order to produce inflammation, 0.1 mL of 1% carrageenan solution in water was injected into the hind paw subplantar tissue of rats, according to the modified method of C. A. Winter and P. Lence. […] Prior to the administration of test substances, paw diameters were measured by dividers and recorded. The investigated compounds were administered at a dose of 20 mg/kg, ip (as a suspension in methylcellulose), prior to carrageenan injection. […] After these administrations, paw diameters were measured at 1, 2 and 3 h. The edema % and edema inhibition % were calculated according to the formulas given below. Edema% = (N′ × 100)/N Edema inhibition% = (N – N′ × 100)/N
N: Paw diameters measured 1, 2 and 3 h after injection of carrageenan to the control group—paw diameters at the beginning.
N′: Paw diameters measured 1, 2 and 3 h after injection of carrageenan to the test groups—paw diameters at the beginning.

[3] = test system: BV-2 cells treated with LPS; experiment: Griess assay, NO production; conditions: BV-2, LPS 1 μg/mL 24 h; at the lowest concentrations (19: 100 nM; 22: 100 and 200 nM)
Procedure: To assess the ability of compounds to inhibit NO production, the Griess assay was applied. This is a colorimetric assay to measure the levels of nitrite (NO2^−), which is one of the primary and stable metabolites of NO. The anti-inflammatory activity of compounds was examined in BV-2 cells treated with LPS as previously described [19]. Briefly, BV-2 cells were first pre-treated with increasing concentrations of tested compounds for 1 h, followed by LPS (1 μg/mL) stimulation for 24 h. Together with the Griess assay, the 3-(4,5-dimethylthiazol-2-yl)-5-(3-carboxymethoxyphenyl)-2-(4-sulfophenyl)-2H-tetrazolium (MTS) assay was performed to ensure that the decrease in NO level was not an effect of toxicity.
Griess reagent (Sigma-Aldrich, Saint Louis, MO, USA, G4410) was freshly prepared by dissolving 1 g in ultrapure water and mixing by inversion for about 4 min under protection from light. […] The plate was incubated for 15 min at room temperature and the absorbance was read at 540 nm using the EnSpire microplate reader (PerkinElmer, Waltham, MA, USA). Data were analyzed by direct comparison based on the average absorbance of LPS treatment, compound treatment or co-treatment with LPS, performed by normalizing treated cells (compound alone or co-treatment with LPS) to LPS-treated cells set at 100%.

| SMILES | behaviour in the culture medium at the highest concentrations [1] | neurotoxicity, cell viability (in words) (SH-SY5Y cells) | hepatotoxicity, cell viability (in words) (HepG2 cells) | Change in Edema Volume 1 h [2] | inhibition of edema, first hour [2] | Change in Edema Volume 2 h [2] | inhibition of edema, second hour [2] | Change in Edema Volume 3 h [2] | inhibition of edema, third hour [2] | anti-inflammatory activity in Griess assay (in words) [3] |
| --- | --- | --- | --- | --- | --- | --- | --- | --- | --- | --- |
| C#CCn1c(=O)c2c(nc(NCc3cccc(Br)c3)n2C)n(C)c1=O [compound 24, 8-((3-Bromobenzyl)amino)-3,7-dimethyl-1-(prop-2-yn-1-yl)-3,7-dihydro-1H-purine-2,6-dione] | precipitated and formed crystals in the culture medium | high safety profile | high safety profile | 0.38 ± 0.02 ^a mL | 51.2% | 0.63 ± 0.14 ^a mL | 43.8% | 0.69 ± 0.01 ^b mL | 48.1% |  |
| C#CCn1c(=O)c2c(nc(NCc3ccccc3Cl)n2C)n(C)c1=O [compound 19, 8-((2-Chlorobenzyl)amino)-3,7-dimethyl-1-(prop-2-yn-1-yl)-3,7-dihydro-1H-purine-2,6-dione] | precipitated and formed crystals in the culture medium | high safety profile | high safety profile | 0.56 ± 0.13 mL | 28.2% | 0.72 ± 0.09 mL | 35.7% | 1.10 ± 0.21 mL | 17.3% | moderate anti-inflammatory activity |
| C#CCn1c(=O)c2c(nc(NCc3c(F)cccc3Cl)n2C)n(C)c1=O [compound 22, 8-((2-Chloro-6-fluorobenzyl)amino)-3,7-dimethyl-1-(prop-2-yn-1-yl)-3,7-dihydro-1H-purine-2,6-dione] | precipitated and formed crystals in the culture medium | high safety profile | high safety profile | 0.49 ± 0.08 mL | 37.1% | 0.91 ± 0.05 mL | 18.7% | 0.92 ± 0.06 mL | 30.8% | moderate anti-inflammatory activity |
